Laboratory results as given in US6534080B2, “Method for administering camptothecins via injection of pharmaceutical composition comprising coated particles of a camptothecin” (priority 2001, dated 2003).

Assays:
[1] = tested on: A375 human melanoma xenografts; assay: A375 human melanoma xenograft study 1 (tumor growth delay, toxicity); details: for share of mice with CR responses: q3d×4
Text: The following study evaluates two intravenous formulations according to the present invention against human tumor xenografts in athymic nude mice. The study used the A375 human melanoma xenograft model to compare the in vivo antitumor efficacy of I.V. 9-nitro-camptothecin, in vehicles containing IDD-P which provides a particulate suspension of 9-nitro-camptothecin, and IDD-D which provides a droplet suspension of 9-nitro-camptothecin, to the efficacy of oral 9-nitro-camptothecin and intraperitoneal CAMPTOSAR®, HYCAMTIN®, and DTIC®.
In order to assess antitumor efficacy, groups of athymic nude mice (n=10) bearing ˜72-mg A375 melanomas were treated intravenously on the 5/2/5 schedule with 9-nitro-camptothecin in IDD-P at 3.0 mg/kg or 1.5 mg/kg and 9-nitro-camptothecin in IDD-D at 2.0 mg/kg or 1.0 mg/kg.
Husbandry: Female nude mice were 16 weeks of age (NCR-nufBr; Taconic Farms) for the A375 study. The mice were fed ad libitum water (reverse osmosis, 1 ppm Cl) and autoclaved Prolab NIH-31 M/5% Rodent Diet consisting of 18% protein, 5% fat, 6% fiber, and 8% ash. Mice were housed in static microisolators on a 12-hour light cycle at 21-22° C. (70-72° F.) and 40%-60% humidity.
Tumor Implantation: An A375 melanoma fragment (1 mm 3 ) was implanted subcutaneously in the flank of each nude mouse. When the tumors reached the 60-112 mg size range, the mice were sorted into treatment groups (on Day 1) such that the group mean tumor sizes ranged from 71.3 mg-72.5 mg. Estimated tumor weight was calculated using the formula: [formula]
Drug Formulations: IDD-P with a mean particle size of 0.07-0.06 mm and IDD-D with a mean particle size of 0.15 mm were prepared for the study by RTP Pharma Inc. For this, the 9-nitro-camptothecin suspensions were diluted with water and vehicle to provide doses of 3 mg/kg and 1.5 mg/kg in 33% IDD-P, and doses of 2 mg/kg and 1 mg/kg in 100% and 50% IDD-D, respectively. After dilution, 9-nitro-camptothecin suspensions were mixed thoroughly by gentle agitation and stored at 2-8° C. For its oral formulation, 9-nitro-camptothecin was dissolved in DMA (N,N-dimethylacetamide, SIGMA) and diluted with D5W to yield a final DMA concentration of 3%. CAMPTOSAR®, DTIC®, and HYCAMTIN® were obtained as the marketed drugs and solutions were prepared fresh on the day of dosing. CAMPTOSAR® (irinotecan, Pharmacia & Upjohn Company, 20 mg/ml) and DTIC® (dacarbazine, Bayer Corporation, 20 mg/ml) were diluted with D5W. HYCAMTIN® (topotecan, SmithKlein Beecham) was reconstituted with water at 1 mg/ml.
Treatments: Volumes of 0.20 ml per 20-g mouse, body-weight adjusted, were administered once daily. Tumor-bearing athymic nude mice were matched on Day 1 into 13 groups of ten animals and drug administration was initiated. The I.V. formulations of 9-nitro-camptothecin were given once daily on a 5/2/5 schedule as shown in the protocol summary shown in FIG. 4. Oral 9-nitro-camptothecin doses were given on a q3d×4 schedule (Days 1, 4, 8, and 11). Three reference drugs were administered I.P.: CAMPTOSAR® was given in three doses at weekly intervals (qwk×3); HYCAMTIN® was given in four doses at four-day intervals (q4d×4); and DTIC® was given in five consecutive daily doses (qd×5). The tumor growth control group for these reference treatments received no treatment (Group 1). The 9-nitro-camptothecin vehicle: 33.3% IDD-P, 100% IDD-D, and 3% DMA, was administered to vehicle control Groups 2-4, respectively.
Tumor Growth Endpoint: The tumor growth delay (TGD) method was used to assess efficacy. Tumor dimensions were measured twice weekly until the experiment was terminated on Day 62.

[2] = whole blood; cited from earlier work
[3] = human plasma, pH 7.4, 37° C.; cited from earlier work
[4] = target: human serum albumin (HSA) (Homo sapiens, UniProt P02768); details: PBS at pH 7.4; cited from earlier work
[5] = 2.0 mg/kg p.o., q3d×4, Group 13, Day 62
[6] = 4.0 mg/kg p.o., q3d×4, Group 12, Day 62

Chain of human serum albumin (HSA) (P02768 25-609): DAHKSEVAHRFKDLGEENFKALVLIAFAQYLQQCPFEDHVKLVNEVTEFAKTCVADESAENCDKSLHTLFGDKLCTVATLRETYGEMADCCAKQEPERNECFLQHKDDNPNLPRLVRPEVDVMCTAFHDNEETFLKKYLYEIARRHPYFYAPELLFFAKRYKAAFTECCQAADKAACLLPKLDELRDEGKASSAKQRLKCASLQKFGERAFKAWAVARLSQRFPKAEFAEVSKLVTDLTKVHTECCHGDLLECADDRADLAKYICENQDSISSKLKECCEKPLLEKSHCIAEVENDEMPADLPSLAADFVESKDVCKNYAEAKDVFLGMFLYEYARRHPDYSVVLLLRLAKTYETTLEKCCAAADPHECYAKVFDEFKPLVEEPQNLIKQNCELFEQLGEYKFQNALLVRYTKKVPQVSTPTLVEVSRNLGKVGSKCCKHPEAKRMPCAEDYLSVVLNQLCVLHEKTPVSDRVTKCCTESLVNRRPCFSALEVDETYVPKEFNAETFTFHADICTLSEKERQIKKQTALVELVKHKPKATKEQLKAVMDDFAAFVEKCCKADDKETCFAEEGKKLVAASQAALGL

## CC[C@@]1(O)C(=O)OCc2c1cc1n(c2=O)Cc2cc3c([N+](=O)[O-])cccc3nc2-1 [9-nitro-camptothecin in 3% DMA, 9-nitro-20(S)-camptothecin]
[1]; 2 mg/kg p.o.
  share of mice with CR responses: 40%
[1]; [5]
  CR responses: 4
  PR responses (printed RP): 1
  SD/PD responses: 2
[1]; 2.0 mg/kg p.o., q3d×4, Group 13, n=10
  62-day survivors: seven
[1]; 4 mg/kg p.o.
  share of mice with CR responses: 40%
[1]; [6]
  CR responses: 4
  SD/PD responses: 3
[1]; 4.0 mg/kg p.o., q3d×4, Group 12, n=10
  62-day survivors: seven

## CCc1c2c(nc3ccc(OC(=O)N4CCC(N5CCCCC5)CC4)cc13)-c1cc3c(c(=O)n1C2)COC(=O)[C@]3(O)CC [CAMPTOSAR®, irinotecan]
[1]; 100 mg/kg I.P., qwk×3, Group 5, Day 62
  CR responses: single and one

## CN(C)/N=N/c1[nH]cnc1C(N)=O [DTIC®, dacarbazine]
[1]; 150 mg/kg I.P., qd×5, Group 7, n=10
  toxic deaths: one and One

## CC[C@@]1(O)C(=O)OCc2c1cc1n(c2=O)Cc2cc3c(CN(C)C)c(O)ccc3nc2-1 [HYCAMTIN®, topotecan]
[1]; 10 mg/kg I.P., q4d×4, Group 6, Day 62
  CR responses: single and one

## CC[C@@]1(O)C(=O)OCc2c1cc1n(c2=O)Cc2cc3ccccc3nc2-1 [camptothecin, 20(S)-camptothecin]
[2]
  half-life of α-hydroxy lactone: 22 min
[3]
  half-life of α-hydroxy lactone ring opening: 11 min

## CC[C@@](O)(C(=O)O)c1cc2n(c(=O)c1CO)Cc1cc3ccccc3nc1-2 [carboxylate form of camptothecin]
[4]
  affinity for HSA of carboxylate form relative to α-hydroxy lactone form: 150 fold
